Test: In vitro enzyme assay to detect hydrolysis of chlorophenol red-beta-D-[…] directly proportional to the number of Toxoplasma stably expressing beta-galactosidase
Assay type: functional, organism-based, Toxoplasma gondii
Details: for IC50: Toxoplasma gondii

CCN1CC2(CC1=O)CN(Cc1ccncc1)CCN(C(=O)C(C)C)C2 (centres undefined)
IC50: > 50.1 µM

CC(C)N1CCCN(c2nc(-c3cccnc3)nc3c2cnn3C)CC1
IC50: 5.84 µM

Cc1ccc(CN(C)C(=O)Cn2cnnn2)o1
IC50: > 50.1 µM

CS(=O)(=O)Nc1ccccc1CNC(=O)c1ccoc1
IC50: > 50.1 µM

COc1ccccc1NC(=O)CC#N
IC50: > 50.1 µM

O=C(c1ccc(-c2ccc(O)nc2)s1)N1CCCCC1
IC50: > 50.1 µM

CCn1c(NCc2cccnc2)nc2c(C)nn(C)c2c1=O
IC50: > 50.1 µM

CCN1C[C@H]2CCN(C(=O)NC)CC[C@H]2S1(=O)=O
pIC50: 4.337
IC50: > 50.1 µM

Nc1cccnc1NCc1cccnc1
IC50: > 50.1 µM

CCN(CCNS(=O)(=O)N1CCOCC1)C(=O)OC(C)(C)C
IC50: > 50.1 µM

NCCc1cc(C(F)(F)F)ccn1
IC50: > 50.1 µM

Cn1ncc(C(=O)N2CCN(C(=O)c3ccco3)CC2)c1Cl
IC50: > 50.1 µM

N#Cc1c(Cl)nsc1NCc1cccnc1OC1CCCC1
pIC50: 5.095
IC50: 6.71 µM

CC(=O)Nc1ncc(S(=O)(=O)Nc2cccc(O)c2)s1
IC50: > 50.1 µM

Cc1cncc(C(=O)N2CCCC2C(C)(C)O)c1 (centres undefined)
IC50: > 50.1 µM

CCCC(N)C(=O)N(C)Cc1cccc(N(C)C)c1 (centres undefined)
IC50: > 50.1 µM

CCn1c(NCc2ccccc2)nc2c(C)nn(C)c2c1=O
pIC50: 4.457
IC50: 22.7 µM

NC1CCN(C(=O)Nc2ccccc2)C1 (centres undefined)
IC50: > 50.1 µM

O=C(NCc1ccc2c(c1)OCO2)n1ccnc1
IC50: > 50.1 µM

CC(C)NC(=O)Nc1nc2c(s1)CN(C(=O)NCc1cccs1)CC2
pIC50: 4.581
IC50: > 50.1 µM

Cc1c(-c2ccccc2)nc2c(c(C)c(C)n2CCN(C)C)c1N
IC50: 15.6 µM

CCNC(C)(C)C(=O)N(C)Cc1ccc(OC)c(F)c1
IC50: > 50.1 µM

COc1ccc(C(=O)N(CCO)Cc2ccccc2)c(OC)n1
pIC50: < 4.3
IC50: 29.2 µM

CCn1c(NCc2ccc(OC)cc2)nc2c(C)nn(C)c2c1=O
IC50: > 50.1 µM

CCC(=O)N1CCN(c2nc(C)nc3c(C)nn(C)c23)CC1
IC50: > 50.1 µM

CN1CCC(NCC(O)c2cccc(OCc3ccccc3)c2)CC1 (centres undefined)
IC50: 7.98 µM

O=C(c1cccnc1)c1ncc[nH]1
IC50: > 50.1 µM

CC(C(=O)Nc1sccc1C(N)=O)N(C)CCOc1ccccc1 (centres undefined)
pIC50: 5.826
IC50: 2.24 µM

NCCN1CCC(C(N)=O)CC1
IC50: > 50.1 µM

CNC(=O)CCN1CC(Oc2ccc(C)cc2)C1
IC50: > 50.1 µM

CC(=O)Nc1ncc(S(=O)(=O)Nc2cccc(C)c2)s1
IC50: > 50.1 µM

c1ccc(CNc2ccncc2)nc1
IC50: > 50.1 µM

COCCN(CCOC)CC(=O)N(C)C
IC50: > 50.1 µM

O=C(NCCc1ncc[nH]1)c1cccnc1SC(F)F
IC50: > 50.1 µM

OC(CNC1CCSCC1)c1cccc(OCc2ccccc2)c1 (centres undefined)
IC50: 17.2 µM

CC(C)C(=O)N1CCN(c2ncnc3cc4c(cc23)OCCO4)CC1
IC50: > 50.1 µM

CCn1nc(-c2ccc(F)cc2)oc1=O
IC50: > 50.1 µM

N#Cc1c(Cl)nsc1NCC1(c2ccccc2)CCC1
IC50: 5.72 µM

CC(=O)NCCCS(=O)(=O)c1ncccc1Cl
IC50: > 50.1 µM

CN(Cc1cccc(C#N)c1)Cc1ccnc(N)c1
IC50: > 50.1 µM

NCc1ccnc(N2CCCC2)n1
IC50: > 50.1 µM

NC(=O)C(Cc1ccccc1)NS(=O)(=O)Cc1ccccc1Cl (centres undefined)
IC50: > 50.1 µM

Cc1nc([C@H]2CCCN2)cs1
IC50: > 50.1 µM

CCC(=O)c1cccc(OC)n1
IC50: > 50.1 µM

CS(=O)(=O)NCc1ccc(CN2CCCC2=O)cc1
IC50: > 50.1 µM

O=C(NCCn1cnc(C2CCCC2)cc1=O)NCc1cccs1
IC50: 7.44 µM

CCNc1ncc2c(n1)CN(c1cccc(OC)c1)C2=O
IC50: > 50.1 µM

COCCNc1cc(C)nn2cnnc12
IC50: > 50.1 µM

CCC1=NC(SCC(=O)c2ccc(OC)cc2)c2cc(CC)sc2N1 (centres undefined)
IC50: 37.7 µM

CNc1ncc2c(n1)CN(c1cccc(OC)c1)C2=O
IC50: > 50.1 µM

CC(CN)C(=O)Nc1cn[nH]c1 (centres undefined)
IC50: > 50.1 µM

Cc1ccc(C(=O)NCCN2CCOCC2)c(C)c1
IC50: > 50.1 µM

CCC(CC)C(O)CNC(=O)NCC1CC1 (centres undefined)
IC50: > 50.1 µM

COc1cc2cc(C(=O)NCC(=O)O)n(C)c2c(OC)c1OC
IC50: > 50.1 µM

Cc1ccc(C(=O)N2CCN(c3nccn3C)CC2)o1
IC50: > 50.1 µM

Cc1cc(NCCO)nc(N2CCC(Cc3ccccc3)CC2)c1C#N
IC50: 10.7 µM

CCCc1nc(NCCOC)c2c(n1)c(C)nn2CC
IC50: > 50.1 µM

Cc1nnc(SCCO)s1
IC50: > 50.1 µM

CCCc1nc(NCCCOC)c2c(n1)c(C)nn2CC
IC50: 34 µM

Cc1cccc(NC(=O)C2CC(=O)n3cnnc3S2)c1 (centres undefined)
pIC50: 4.363
IC50: > 50.1 µM

Cc1ncc(CN2CCOC(c3ccc(-c4ccccc4F)cn3)C2)s1 (centres undefined)
IC50: 9.61 µM

Cc1ccc(C(=O)N2CCN(C(C)C(N)=O)CC2)s1 (centres undefined)
IC50: > 50.1 µM

Nc1c[nH]nc1-c1ccccn1
IC50: > 50.1 µM

Cc1nn(C)c2c(N(C)Cc3ccco3)nc(C3CC3)nc12
IC50: 11.8 µM

Cc1cc(C(=O)Nc2cnn(CC(F)(F)F)c2)nc(N2CCOCC2)n1
IC50: > 50.1 µM

CCC(=O)c1nccn1C
IC50: > 50.1 µM

C[C@@H]1CN(C(=O)c2cc(F)cc(C#N)c2)C[C@]1(C)O
IC50: > 50.1 µM

From ChEMBL document CHEMBL3988442, “University of Dundee, Small-Polar-MMV Screening Library” (2021)
